Data set [1] is described as follows: Stability of test peptides in human plasma (LC/MS/MS, first order half-life). In kind it is in vitro ADME. As to the method: (§1) Various test peptides in human plasma, human BALF, and CF patient mucus were analyzed to determine the susceptability of the test peptide to proteolysis in the biological fluids. […] The samples were analyzed either on the same day as received or stored at −20° C. and analyzed within the following two days.
Fresh human blood samples were collected in citrate buffered vacuutrainers (in absence of EDTA or heparin). Red blood cells (RBC) were removed by centrifugation of the blood at 4000×g for 10 min at 4° C. Plasma aliquots (0.9 mL) were then spiked with 0.1 mL of 0.5 mg/mL solution of the test peptide in 75 mM sodium acetate buffer at pH 7.0 and incubated in a water bath maintained at 37° C. Duplicate aliquots of 10 μL, were withdrawn at 5, 15, 30, 60, and 180 minutes intervals and immediately “quenched” with 990 μL of a solution consisting of 50% acetonitrile+50% water containing 0.2% formic acid. The samples were then subjected to liquid chromatography-mass spectrometry (LCMS) analysis.
(§2) All samples were analyzed using LC/MS/MS (MDS/SCIEX, API 4000 Model). Chromatography was performed using a Phenomenex Luna C18 column, while mass spectrometry was performed using positive ion electrospray ionization.
Calibration standards were analyzed by LCMS at concentrations of 0.100 μg/mL, 1.00 μg/mL, 10.0 μg/mL, and 100 μg/mL for each peptide, with the exception of the calibration standards for peptides myr-PEPTIDE 106, PEPTIDE 106, PEPTIDE 106-NH2, PEPTIDE 106, and cyclic peptide, cyc-PEPTIDE 106, in human mucus, which were analyzed at concentrations of 0.100 μg/mL, 1.00 μg/mL, 10.0 μg/mL, and 75 μg/mL. Standards were prepared in 1% human BALF, plasma, or mucus in 50/50 water/acetonitrile mixture containing 0.2% formic acid. The instrument response values for each set of standards were fit using a 1/(concentration)^2 linear least-squares line. Sample concentrations were calculated using the slope and intercept of this line. Concentrations outside of the calibration range were determined by extrapolating the calibration curve. […]
For the analysis of peptide concentration in plasma, duplicate calibration standards were analyzed at a concentration of 25 μg/mL and 50 μg/mL for each peptide. The instrument response values for each set of standards were fit through an intercept of 0 using an unweighted, linear least-squares line. Sample concentrations were calculated using the slope and intercept of this line. Concentrations outside of the calibration range were determined by extrapolating the calibration curve.
(§3) Watson fits the log transformed data with a least-squares line to determine parameters such as Cmax (maximum concentration), intercept, rate constant, slope, and T1/2 (half-life). The resulting kinetic parameters were based on the linear fit, not the actual concentration values.
(§4) Time-zero calibration standards in solution were not included as part of the kinetic profiles.

Data set [2] can be described thus: Stability of test peptides in human CF mucus (LC/MS/MS, first order half-life). The format is in vitro ADME. How it is done: as §1
The frozen mucus (sputum) from a CF patient was thawed and mixed with 2 volumes of 75 mM sodium acetate buffer, pH 7 with the help of a glass tissue grinder, centrifuged at 10,000×g for 10 min at 4-8° C. The pellet was re-suspended in 1 volume of the acetate buffer and centrifuged. The two supernatants were combined and used as follows. The supernatant (450 μL) was spiked with 50 μL, of 0.5 mg/mL solution of the peptide in 75 mM sodium acetate buffer at pH 7.0 and processed and analyzed as described above.
as §2
(§5) Calibration standards were analyzed by LCMS at concentrations of 0.100 μg/mL, 1.00 μg/mL, 10.0 μg/mL, and 100 μg/mL for each peptide, with the exception of the calibration standards for peptides myr-PEPTIDE 106, PEPTIDE 106, PEPTIDE 106-NH2, PEPTIDE 106, and cyclic peptide, cyc-PEPTIDE 106, in human mucus, which were analyzed at concentrations of 0.100 μg/mL, 1.00 μg/mL, 10.0 μg/mL, and 75 μg/mL. Standards were prepared in 1% human BALF, plasma, or mucus in 50/50 water/acetonitrile mixture containing 0.2% formic acid. The instrument response values for each set of standards were fit using a 1/(concentration)^2 linear least-squares line. Sample concentrations were calculated using the slope and intercept of this line. Concentrations outside of the calibration range were determined by extrapolating the calibration curve.
as §3, §4

Data set [3] in a line: Qualitative solubility of test peptides in 0.5 N saline. In kind it is physicochemical. The settings on record: pH 6.5, 20° C. (table title). As to the method: Various test peptides (1 to 5 mg each) were weighed out accurately in individual 2 mL screw cap glass vials and aliquots of 25 μL of 0.5 N saline, pH 6.5, were added at 25° C. and ambient pressure. The solubility was evaluated visually. If the test peptide dissolves completely with the first aliquot of saline, its solubility was calculated and designated as more than the calculated amount. […] Similarly, if 1.7 mg of a test peptide fails to dissolve in 1.7 mL of 0.5 N saline, its solubility is stated as <1.0 mg/mL.

Data set [4] is described as follows: Stability of test peptides in human BALF (LC/MS/MS, first order half-life). In kind it is in vitro ADME. As to the method:
as §1
Samples of BALF collected from COPD patients were obtained and frozen. The BALF samples were thawed, mixed together and centrifuged at 10,000×g for 10 min at 4-8° C. The supernatant (0.9 mL) was spiked with 0.1 mL of 0.5 mg/mL solution of the peptide in 75 mM sodium acetate buffer at pH 7.0 and processed and analyzed as described above.
as §2, §5
Duplicate calibration standards were analyzed at a concentration of 50 μg/mL for each peptide. The instrument response values for each set of standards were fit through an intercept of 0 using an unweighted, linear least-squares line. Sample concentrations were calculated using the slope and intercept of this line.
For the analysis of peptide concentration in BALF samples, one 50 μg/mL calibration standard prepared in a mixture of BALF, water, acetonitrile, and formic acid was analyzed with each sample set.
as §3, §4

The test system of data set [5] is methacholine-induced mucin hypersecretion. Kind of data set: Methacholine-induced mucin hypersecretion in ovalbumin-sensitized mouse model of asthma, BAL mucin ELISA (Balb/C mice). The settings on record: for Mucin Secretion % control: Table II, peptides at 100 μM, 50 μL intratracheal 15 min before methacholine; for Mucin Secretion % of control: Table IV. In kind it is in vivo. The text has this:
Experiments were designed to test whether or not the MANS peptide and other test peptides related thereto inhibit hypersecretion of mucin in murine airway in vivo. The ovalbumin-sensitized mouse model of allergic inflammation and asthma used in these studies was as described by Singer et al. (2004), supra. As a negative control, a control peptide containing an N-terminal myristoyl group and the same amino acids as MANS peptide but arranged in random order (i.e., the random N-terminal sequence, RNS, myristoyl-peptide 232) was tested alongside the proposed active peptides. BP2 mice, aged 6-8 wks, were immunized subcutaneously twice at weekly intervals with 1 μg of ovalbumin. After 14 days of sensitization, the animals were exposed to aerosolized ovalbumin, which causes a pronounced goblet cell hyperplasia after 72 hours. At the 72 hr time point, the secretagogue, methacholine ([…]) was delivered using a Buxco system nebulizer providing a fine aerosol for 90 seconds. Fifteen min prior to the secretagogue challenge, 50 μL of the test peptide, at 3 different concentrations (10 μM, 100 μM, or 140 μM), was administered by intratracheal route. The RNS peptide was tested at the highest dose level only (50 μL of 140 μM solution). […] Each experiment was carried out in 6 mice per point, and each set of experiments was repeated 3 times. To test strain-to-strain variations, the above experiment was repeated in Balb/C mice under similar protocol. Both stimulated and unstimulated mucin secretion, in mice treated with […] sodium acetate (data not shown), were identical to saline control. Following the methacholine challenge, the animals were sacrificed and bronchoalveolar lavage (BAL) performed on 6 animals per group for analysis of secreted mucin.
Mice were sacrificed by cervical dislocation, followed by rapid exposure of the trachea and insertion of a cannula through a small incision. Bronchoalveolar lavage (BAL) fluid was collected with 0.5 ml followed by 3×1 ml PBS containing PMSF (5 mM), EDTA (5 mM), and DTT (5 mM). BAL fluid was separated into cell-free and cell fractions via brief centrifugation prior to any analyses being performed. The cell-free supernatants were analyzed for the presence of mucin via an ELISA method using anti-mucin antibodies shown to react with mouse mucin. Specifically, a mouse anti-MUC5AC antibody that recognizes the carbohydrate portion of secreted mucin was used in these assays. Data generated from each BAL sample were normalized to total protein as determined by Bradford assay. Mucin content was expressed as the value obtained with the anti-mucin antibody minus that obtained with the non-immune control antibody. All ELISA data were statistically examined using a one-way ANOVA.
Background: An ELISA detects its analyte on a solid surface through an enzyme-linked reagent.

[6] abbreviates: human plasma, 37° C., 2nd experiment, read-out: Plasma t1/2 (2nd exp.) (converted).
[7] abbreviates: human BALF from COPD patients, 1st experiment, read-out: BALF t1/2 (1st exp.) (converted).
Where [8] appears, read: human plasma, 37° C., 1st experiment, read-out: Plasma t1/2 (1st exp.) (converted).

Marks after values point to notes of the source that are not given here. Where a SMILES comes first, the peptide text is derived from it. The star is where a group is joined. Myristoyl = CCCCCCCCCCCCCC(=O)*

As usually defined, the solubility is how much of the substance goes into solution per volume. Read a low solubility as little dissolved substance.

`C[C@@H]1NC(=O)CNC(=O)[C@H](CCCCN)NC(=O)[C@H](C)NC(=O)[C@H](C)NC(=O)[C@H]([C@@H](C)O)NC(=O)[C@H](CCCCN)NC(=O)[C@H](CO)NC(=O)[C@H](Cc2ccccc2)NC(=O)[C@H](CCC(N)=O)NC1=O` [cyclic-peptide 106] (cyclo(GAQFSKTAAK)): the half-life in data set [1] (setting [6]) was 1.04 h; in data set [2] (human CF mucus, 1st experiment, read-out: Mucus t1/2 (1st exp.) (converted)) it was 1.1 h; in data set [2] (human CF mucus, 2nd experiment, read-out: Mucus t1/2 (2nd exp.) (converted)), 2 h. The compound also registered a solubility in data set [3] of more than 150 mg/mL.

As to `CCCCCCCCCCCCCC(=O)NCC(=O)N[C@@H](C)C(=O)N[C@@H](CCC(N)=O)C(=O)N[C@@H](Cc1ccccc1)C(=O)N[C@@H](CO)C(=O)N[C@@H](CCCCN)C(=O)N[C@H](C(=O)N[C@@H](C)C(=O)N[C@@H](C)C(=O)N[C@@H](CCCCN)C(=O)O)[C@@H](C)O` [myr-peptide 106] (Myristoyl-GAQFSKTAAK-OH), the half-life in data set [4] was 1.03 h; in data set [1] (Plasma t1/2 (1st exp.)), 1.23 h; in data set [1] (Plasma t1/2 (2nd exp.)) it was 0.9 h; in data set [2] (cerebrospinal or other body fluid, pH 7, Mucus t1/2 (1st exp.)), 9.53 h; in data set [2] (cerebrospinal or other body fluid, pH 7, Mucus t1/2 (2nd exp.)) it was 3 h. In data set [5], the “Mucin Secretion % control” value turned out to be 33.6 % control. The “Mucin Secretion % of control” value in data set [5] (peptide 10 μM) is listed as 74*+ % of control; in data set [5] (peptide 100 μM) it was 24** % of control. In data set [3], this compound displayed a solubility of more than 10 mg/mL.

For `CCCCCCCCCCCCCC(=O)NCC(=O)N[C@@H](C)C(=O)N[C@@H](CCC(N)=O)C(=O)N[C@@H](Cc1ccccc1)C(=O)N[C@@H](CO)C(=O)N[C@@H](CCCCN)C(=O)N[C@H](C(=O)N[C@@H](CCCCN)C(=O)N[C@@H](C)C(=O)N[C@@H](CCCCN)C(=O)NCC(=O)N[C@@H](CCC(=O)O)C(N)=O)[C@@H](C)O` [myr-peptide 234-NH2] (Myristoyl-GAQFSKTKAKGE-NH2), the half-life was 1.7 h in data set [4] (setting [7]) and 3.82 h in data set [1] (setting [8]). The “Mucin Secretion % control” value in data set [5] turned out to be 27.8 % control. Further, the solubility in data set [3] is less than 2 mg/mL.

Regarding `CCCCCCCCCCCCCC(=O)NCC(=O)N[C@@H](C)C(=O)N[C@@H](CCC(N)=O)C(=O)N[C@@H](C)C(=O)N[C@@H](CO)C(=O)N[C@@H](CCCCN)C(=O)N[C@H](C(=O)N[C@@H](C)C(=O)N[C@@H](C)C(=O)N[C@@H](CCCCN)C(=O)O)[C@@H](C)O` [myr-peptide 236] (Myristoyl-GAQASKTAAK-OH), the half-life is 3.55 h in data set [4] (cerebrospinal or other body fluid, human BALF from COPD patients, 1st experiment, read-out: BALF t1/2 (1st exp.) (converted)); 2.94 h in data set [4] (cerebrospinal or other body fluid, human BALF from COPD patients, 2nd experiment, read-out: BALF t1/2 (2nd exp.) (converted)); 0.72 h in data set [1] (setting [8]). In addition, in data set [3], the solubility is less than 10 mg/mL.

As for Ac-GAQFSKTAAKGE-NH2 [Ac-peptide 79-NH2], the half-life in data set [1] (setting [8]) is 2.64 h. In data set [3], this compound had a solubility of more than 60 mg/mL.

Take “H-GAQASKTAAKGE-OH [peptide 237, GAQASKTAAKGE]”: the figures for the “Mucin Secretion % of control” value in data set [5] (peptide 10 μM) and in data set [5] (peptide 100 μM) were 67*+ % of control and 8** % of control, respectively. Moreover, the half-life in data set [1] (setting [8]) is 0.49 h. The solubility in data set [3] is more than 80 mg/mL.

For the compound H-GAQFSKTAAK-NH2 [peptide 106-NH2], the half-life in data set [4] (setting [7]) is 4 h; in data set [1] (setting [8]), 0.3 h; in data set [1] (setting [6]), 0.13 h; in data set [2] (cerebrospinal or other body fluid, pH 7, human CF mucus, 1st experiment, read-out: Mucus t1/2 (1st exp.) (converted)) it was 0.08 h; in data set [2] (cerebrospinal or other body fluid, pH 7, human CF mucus, 2nd experiment, read-out: Mucus t1/2 (2nd exp.) (converted)), 0.13 h. The same compound registered a solubility in data set [3] of more than 100 mg/mL.

(Values after US9598463B2, “Mucin hypersecretion inhibitors and methods of use” (BIOMARCK PHARMACEUTICALS, LTD., priority 2005, dated 2017).)
